Assay results: patent publication US5030631A, “Tricylclic arylsulfonamides” (Schering Corporation, priority 1989, dated 1991)

Columns and labels:
[1] = system: conscious spontaneously hypertensive rats (SHR); experiment: Antihypertensive Activity in Rats (conscious spontaneously hypertensive rats, SHR); assay type: in vivo, rat; conditions: for Change in blood pressure (mean change in mean blood pressure): male SHR, placebo -5
Source text: The ability of the compounds of the present invention to lower blood pressure can be assessed in conscious spontaneously hypertensive rats (SHR). SHR (males) are purchased from Taconic Farms, Germantown, N.Y. and are approximately 16-17 weeks old when used to test the pharmacological effects. Rats, under ether anesthesia, receive a polyethylene tubing (PE50 fused to PE10) inserted via the caudal artery into the abdominal aorta to just below the renal arteries. This catheter is connected to a Spectromed pressure transducer and the direct arterial blood pressure is continuously recorded on an oscillographic recorder. Heart rate is determined via manual count of the pressure waves at a fast paper trace. […] If drugs are administered orally, compounds are suspended in 0.4% aqueous methylcellulose and delivered via oral gavage with an oral feeding needle. Rats are fasted overnight prior to intravenous or oral tests. All incisions are closed and the rats are placed into plexiglass restrainers where they quickly regain consciousness. At least 90 minutes are allowed for the rats to fully regain consciousness and achieve stable blood pressures and heart rates.
Intravenously administered drugs are usually given as a rapid bolus. […] In some cases drugs are given by constant intravenous infusion. The 0.4% aqueous methylcellulose is used as a placebo treatment for compounds given orally. Values are presented as the mean changes in mean blood pressure (MBP) in millimeters of mercury (mm Hg). Drug induced changes are compared with the changes in an appropriate placebo group. The compound is administered intravenously at a dosage of 1.0 to 5.0 milligrams per kilogram (mpk) body weight. The following results are representative for 1-((7-bromo-9H-fluoren-2-yl)sulfonyl)hexahydro-1H-1,4-diazepine from examples 4 and 27 (Compound A): […]

[2] = target: T1, myosin light chain kinase (MLCK) (Gallus gallus, UniProt P11799); experiment: Calcium-Calmodulin Independent Myosin Light Chain Kinase (MLCK) Assay; assay type: biochemical, chicken; conditions: for IC50: calmodulin-independent MLCK (trypsin digested, chicken gizzard), peptide KKRPQRATSNVFS-NH2 50 μM, 100 uM ATP, pH 7.2; for inhibition at 100 µM: 100 μM compound, calmodulin-independent MLCK, printed in the IC50 (μM) column, read-out: percent inhibition at a dosage of 100 μM
T1 construct: Calmodulin-independent myosin light chain kinase(CIM) of greater than 95 percent homogeneity is prepared by trypsin digestion of calmodulin-dependent MLCK; from tissue; host or cells: chicken gizzard (purified from tissue, then digested with TPCK-treated trypsin)
T1 sequence (P11799 1217-1713 limits assumed): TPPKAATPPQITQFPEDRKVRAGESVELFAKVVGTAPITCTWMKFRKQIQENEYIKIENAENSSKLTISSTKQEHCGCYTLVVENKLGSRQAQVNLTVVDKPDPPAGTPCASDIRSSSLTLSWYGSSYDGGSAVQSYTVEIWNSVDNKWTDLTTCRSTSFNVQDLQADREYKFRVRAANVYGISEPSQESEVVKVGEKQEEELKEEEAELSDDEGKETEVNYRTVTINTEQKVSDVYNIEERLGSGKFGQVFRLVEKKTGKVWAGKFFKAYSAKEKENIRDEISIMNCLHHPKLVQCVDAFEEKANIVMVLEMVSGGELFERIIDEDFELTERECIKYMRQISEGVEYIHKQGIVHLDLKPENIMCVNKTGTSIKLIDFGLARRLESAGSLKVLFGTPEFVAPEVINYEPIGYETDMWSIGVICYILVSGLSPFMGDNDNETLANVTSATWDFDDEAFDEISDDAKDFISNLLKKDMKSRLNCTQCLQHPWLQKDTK
Protocol: A. Enzyme Preparation. Calmodulin-independent myosin light chain kinase(CIM) of greater than 95 percent homogeneity is prepared by trypsin digestion of calmodulin-dependent MLCK which is prepared from chicken gizzard by the method of Ngai, P. J., Carruthers, C. A. and Walsh, M. P. (1984), Biochem. J. 218, pages 863-870, through the step employing diethylaminoethyl(DEAE)-Sephacel®, trademark of Pharmacia Fine Chemicals, Inc., New Market, N.J. 08854. The kinase solution containing 8.5 mg protein is adjusted to 0.5 mg/ml in 20 mM Tris/HCl, pH 7.5, 2 mM EGTA. An aliquot of 1 mg/ml of N-tosyl-L-phenylalanine-chloromethyl ketone (TPCK) treated trypsin is added to a final trypsin:MLCK ratio of 1:7.5 (mg/mg protein). Typically, the reaction is incubated for 6 minutes at 25° C.
MLCK is assayed using the synthetic peptide substrate KKRPQRATSNVFS-NH2, a thirteen amino acid fragment with a sequence corresponding to residues 11-23 of gizzard light chain except for a carboxy-terminal serine-NH2 as described in Kemp, G. E., Pearson, R. B. and House, C. (1983) Proc. Nat. Acad. Sci. U.S.A. 80, pages 7471-7475. The standard assay is performed in a total volume of 100 microliters (μl) containing 20 mM Tris-HCl, pH 7.2, 10 mM MgCl2, 100 uM [γ-^32 P] ATP with a specific activity of 300-1000 counts per minute (cpm) per picomole (pmol), 50 μM KKRPQRATSNVFS-NH2, 0.02 μg enzyme. Calmodulin was added at the concentrations indicated in the text and tables, and assays contained 1 mM EGTA or 1 mM EGTA plus approximately 200 μM excess free calcium when calcium-dependent activity was measured. Calcium-independent activity is negligible in the calcium dependent gizzard enzyme. Assays are initiated by addition of adenosine triphosphate (ATP) and stopped by addition of 200 μM HCl. Phosphate incorporated into the basic substrate is measured by spotting an aliquot on phosphocellulose filter paper, washing and counting the papers. The results are given in IC50 values. An IC50 indicates the dosage of compound in micromoles (μM) which inhibits MLCK by 50 percent. […] Results given in percentages (%) indicates the percent inhibition at a dosage of 100 μM.

`O=S(=O)(c1ccc2c(c1)Cc1cc(Br)ccc1-2)N1CCCNCC1` [Compound A, 1-((7-bromo-9H-fluoren-2-yl)sulfonyl)hexahydro-1H-1,4-diazepine] was tested, and the “Change in blood pressure (mean change in mean blood pressure)” value (from here on “Change in blood pressure”) ([1]; intravenous, 1.0 mpk) was -13 mm Hg, the “reduction in blood pressure upon intravenous administration” value ([1]; intravenous, 1.0 to 5.0 mpk, SHR) was “dose-dependent reduction in blood pressure” and the “Change in blood pressure” value ([1]; intravenous, 2.5 mpk) was -25 mm Hg. For the same molecule, the “magnitude of the effect at the highest dose compared with the placebo” value ([1]; intravenous, 5.0 mpk, SHR, compared with placebo) was “marked reduction”, the “Change in blood pressure” value ([1]; intravenous, 5.0 mpk) was -30 mm Hg and the “activity upon oral administration” value ([1]; oral, 50 mpk, SHR) was “does not show activity”. For the same molecule, the IC50 [2] was 76 µM.

`O=S(=O)(c1cccc2cc3ccccc3cc12)N1CCCNCC1` [Example 16] was tested, and the IC50 [2] was 17 µM.

Molecule `O=S(=O)(c1ccc2cc3ccccc3cc2c1)N1CCCNCC1` [Example 17] has an IC50 [2] of 50 µM.

Work on `O=S(=O)(c1cc2ccccc2c2ccccc12)N1CCCNCC1` [Example 18] yielded an IC50 [2] of 4.8 µM.

With `O=S(=O)(c1ccc2c(ccc3ccccc32)c1)N1CCCNCC1` [Example 19] the IC50 [2] was 11 µM.

In the case of `O=S(=O)(c1ccc2c(Br)cc3ccccc3c2c1)N1CCCNCC1` [Example 20], the IC50 [2] is reported as 10 µM.

With `O=S(=O)(c1cccc2nc3ccccc3cc12)N1CCCNCC1` [Example 21] the IC50 [2] was 100 µM.

For `O=S(=O)(c1ccc2ncc3ccccc3c2c1)N1CCCNCC1` [Example 22], the IC50 [2] was 32 µM.

`O=S(=O)(c1ccc2c(cnc3ccccc32)c1)N1CCCNCC1` [Example 23] gave an IC50 [2] of 65 µM.

Work on `O=S(=O)(c1cccc2c1cnc1ccccc12)N1CCCNCC1` [Example 24] yielded an IC50 [2] of 35 µM.

Work on `O=S(=O)(c1c2ccccc2cc2ccccc12)N1CCCNCC1` [Example 25] yielded an IC50 [2] of 5 µM.

With `O=S(=O)(c1cc2ccccc2c2ccccc12)N1CCCNCC1` [Example 26] the IC50 [2] was 3.5 µM.

For `N=C(N)N1CCCN(S(=O)(=O)c2ccc3c(c2)Cc2cc(Br)ccc2-3)CC1` [Example 28], the inhibition at 100 µM [2] was 55%.

`CC1(C)c2cc(Br)ccc2-c2ccc(S(=O)(=O)N3CCCNCC3)cc21` [Example 29] gave an inhibition at 100 µM [2] of 40%.
